Key:
Assay in all cases: relative viability (nuclei count vs DMSO), 5 days (fraction); higher = more cells survive
[1] = compound: C1=CC=C2C(=C1)C=CC(=C2SSC3=C(C=CC4=CC=CC=C43)O)O [IPA-3] + Cc1cc(Nc2cc(N3CCN(C)CC3)nc(Sc3ccc(NC(=O)C4CC4)cc3)n2)n[nH]1 [Tozasertib] (partner 0.1 µM)
How it was run: (§1)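 After 5 days of treatment, lung cancer cells in 1536-well plates were fixed and stained in a single step (final 0.05% Triton X-100, 1% formaldehyde, 1 ug/ml Hoechst) and their nuclei counted on 4× images. Treatment had been applied by pin tool the day after seeding as one drug alone or as a fixed anchor-drug dose with five library-drug doses (not always all listed) in √10 steps. Relative viability is the nuclei count of treated wells divided by that of vehicle wells, and values are medians of duplicate plates.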

[2] = compound: C1=CC=C2C(=C1)C=CC(=C2SSC3=C(C=CC4=CC=CC=C43)O)O [IPA-3] + COc1cc2c(Oc3ccc(NC(=O)C4(C(=O)Nc5ccc(F)cc5)CC4)cc3F)ccnc2cc1OCCCN1CCOCC1 [Foretinib] (partner 0.25 µM)
How it was run: as §1

[3] = compound: Cn1c(Nc2ccc(C(F)(F)F)cc2)nc2cc(Oc3ccnc(-c4ncc(C(F)(F)F)[nH]4)c3)ccc21 [RAF265] + COc1cc2c(Oc3ccc(NC(=O)C4(C(=O)Nc5ccc(F)cc5)CC4)cc3F)ccnc2cc1OCCCN1CCOCC1 [Foretinib] (partner 0.25 µM)
How it was run: as §1

[4] = compound: C1=CC=C2C(=C1)C=CC(=C2SSC3=C(C=CC4=CC=CC=C43)O)O [IPA-3] + CC(=O)Nc1cccc(-n2c(=O)n(C3CC3)c(=O)c3c(Nc4ccc(I)cc4F)n(C)c(=O)c(C)c32)c1 [Trametinib] (partner 0.02 µM)
How it was run: as §1

Cell Line	relative viability ([1]; first compound 0.2 µM)	relative viability ([1]; first compound 0.6325 µM)	relative viability ([1]; first compound 2 µM)	relative viability ([1]; first compound 6.325 µM)	relative viability ([1]; first compound 20 µM)	relative viability ([2]; first compound 0.2 µM)	relative viability ([2]; first compound 0.6325 µM)	relative viability ([2]; first compound 2 µM)	relative viability ([2]; first compound 6.325 µM)	relative viability ([2]; first compound 20 µM)	relative viability ([3]; first compound 0.01 µM)	relative viability ([3]; first compound 0.03162 µM)	relative viability ([3]; first compound 0.1 µM)	relative viability ([3]; first compound 0.3162 µM)	relative viability ([3]; first compound 1 µM)	relative viability ([4]; first compound 0.2 µM)	relative viability ([4]; first compound 0.6325 µM)	relative viability ([4]; first compound 2 µM)	relative viability ([4]; first compound 6.325 µM)	relative viability ([4]; first compound 20 µM)
NCI-H2170	0.822	0.777	0.675	0.644	0.769	1.03	0.942	1.04	0.948	1.13	1.05	0.971	0.978	0.805	0.88	0.958	0.923	0.868	0.846	0.993
HCC-366	0.176	0.132	0.0972	0.141	0.0773	0.929	0.851	0.911	0.833	0.856	0.99	0.841	0.9	0.996	0.914	0.487	0.301	0.374	0.336	0.283
NCI-H2347	0.585	0.598	0.614	0.593	0.656	1.24	0.916	0.908	0.902	0.899	0.93	0.971	0.81	0.592	0.803	0.278	0.276	0.286	0.268	0.281
COR-L 105	0.335	0.463	0.32	0.403	0.342	1.24	1.11	0.744	1.02	1.15	1.29	1.5	1.1	1.15	0.614	0.484	0.509	0.474	0.445	0.442
201T	0.99	1	0.908	0.922	1.06	1.33	1.11	1.17	1.09	1.15	1.1	1.1	1.09	1.21	0.945	0.73	0.679	0.714	0.744	0.786
NCI-H2126	0.922	0.78	0.875	0.842	0.872	1.21	1.23	0.904	1.17	1.18	1.16	1.2	1.17	1.11	0.668	0.569	0.56	0.521	0.501	0.6
LC-2-ad	0.48	0.467	0.531	0.424	0.458	0.986	0.934	0.832	0.938	1.03	1.22	0.921	0.94	0.863	0.645	0.958	0.943	0.93	0.948	0.889
NCI-H2085	0.907	0.748	0.823	0.908	0.951	0.948	0.824	1.28	0.949	1.04	0.859	0.929	0.957	0.987	1.06	0.625	0.602	0.637	0.577	0.714
NCI-H358	0.107	0.0935	0.11	0.0943	0.119	0.815	0.622	0.713	0.732	0.721	0.623	0.641	0.448	0.239	0.215	0.136	0.132	0.134	0.134	0.114
H3255	0.595	0.655	0.652	0.602	0.741	0.861	0.865	0.876	0.832	0.861	0.88	0.88	0.847	–	0.55	0.756	0.573	0.629	0.554	0.606
NCI-H2228	0.245	0.255	0.29	0.301	0.294	0.979	0.805	0.842	1.07	1.22	0.893	0.819	0.781	0.542	0.386	0.768	0.405	0.365	0.634	0.379
CAL-12T	0.371	0.301	0.384	0.343	0.297	1.16	1.01	1.12	0.976	1.14	1.26	1.12	1.01	0.924	0.746	0.505	0.366	0.232	0.338	0.457
A-427	0.18	0.242	0.201	0.224	0.248	1.1	1.08	1.11	1.06	1.14	1.12	0.962	0.846	0.26	0.204	0.798	0.769	0.705	0.629	0.732
HARA	0.133	0.132	0.153	0.485	0.118	1.23	0.854	0.943	0.855	1.31	0.573	0.777	0.931	0.53	0.38	0.884	0.899	0.63	0.591	1.02
NCI-H1793	0.316	0.271	0.368	0.377	0.425	0.918	0.67	0.656	0.757	1.05	0.632	0.616	0.624	–	0.261	0.456	0.373	0.448	0.376	0.437
NCI-H1623	0.418	0.433	0.432	0.47	0.433	0.97	0.899	0.878	0.815	0.923	0.977	0.867	0.983	0.39	0.562	–	–	–	–	–

— the supplement of paper PMC10307832
